In PubChem BioAssay (NCI) one finds TGI and GI50 data, which are given here for 14 compounds.

Several values for one entry are separate records, joined by “and”; a condition that tells them apart may be missing. Equal entries are not always repeated.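 Method: 48-hour compound exposure of cells in 96-well plates, five concentrations, linear interpolation of endpoints. The concentration for 50% growth inhibition is given as GI50. TGI: concentration producing complete growth inhibition.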

Common to all, as to assay: DTP human tumour cell line panel, 48 h
In assay [1] the test system is SF-295 CNS.
For assay [2], the system named is NCI-H460 lung.
Assay [3] concerns SK-MEL-5 melanoma.
The subject of assay [4] is OVCAR-3 ovarian.
The test system of assay [5] is UACC-257 melanoma.
Assay [6] deals with CCRF-CEM leukemia.
In assay [7] the test system is U251 CNS.
Assay [8] has as its system HCT-116 colon.
The test system of assay [9] is M14 melanoma.
Assay [10] relates to PC-3 prostate.

Consider `CCOC(=O)C12CCSC1C1(C#N)C(C#N)=CC2(N=P(c2ccccc2)(c2ccccc2)c2ccccc2)n2c(=O)n(-c3ccccc3)c(=O)n21` (stereo not given), for which the TGI – broadly, the concentration giving total growth inhibition – in [1] is greater than 100 µM; in [2], greater than 100 µM; in assay [3], 55.4 µM; in [4] it was 89.8 µM; in [5], 94.3 µM; in assay [6] it was greater than 100 µM. The TGI in assay [7], in assay [8] and in assay [9] was greater than 100 µM throughout.

Take `COC1=C(C)C(=O)C2=C(C1=O)C(CO)N1C(C#N)C3CC4C(C1C2N1CCOC41)N3C` (stereo not given): the GI50 (commonly the concentration giving 50% growth inhibition) was 0.142 µM in [1]; 0.00264 µM and 0.0262 µM in assay [3]; 0.00238 µM and 0.0198 µM in assay [5]; 0.00946 µM and 0.0889 µM and 0.0764 µM in assay [10]. The TGI in [1] was 0.845 µM and 0.678 µM and 1.11 µM; in [3], 0.214 µM and 0.0802 µM and 0.114 µM; in [4] it was 0.168 µM and 0.0383 µM and < 0.02 µM; in assay [10], 0.663 µM and 0.387 µM.

Turning to `O=C(N[C@@H]1C=CCC[C@@H]1c1ccccc1)OCc1ccccc1`, the TGI in [1] stood at 45.6 µM; in [2] it was 34.7 µM; in assay [3], 33.3 µM; in [4], 31.2 µM; in assay [5], 35.2 µM; in [6], 43.9 µM. Moreover, the figures for the TGI in assay [7], in assay [8] and in assay [9] were 32.9 µM, 34.6 µM and 34.5 µM, respectively.

As for `Cc1ccc(/C=N/NS(=O)(=O)c2ccccc2)cc1`, the TGI in assay [1], in assay [2], in assay [3], in [4], in assay [5] and in assay [6] was greater than 100 µM in each case. The TGI in [7], in assay [8] and in assay [9] was greater than 100 µM in each case.

Take `COc1cc(-c2nc(-c3nnc(-c4ccc(F)c(Cl)c4)o3)c3ccccn23)cc(OC)c1OC`: the GI50 was 3.09 µM in [1]; 3.03 µM in assay [3]; 2.76 µM in [4]; greater than 100 µM in assay [6]; 1.86 µM in [7]; 3.27 µM in assay [9]. Further, the concentration for total growth inhibition (TGI) in assay [1] is greater than 100 µM; in assay [3] it was greater than 100 µM; in assay [4], 8.69 µM; in assay [6], greater than 100 µM; in [7], 4.43 µM; in assay [9] it was greater than 100 µM.

For `NC1=NN(c2ccccc2)C(=O)C1/C(=N\NC(=O)c1cc2ccccc2cc1O)C(=O)Nc1nc([N+](=O)[O-])cs1` (stereo not given), the TGI in assay [1] is greater than 100 µM; in [2], 46.1 µM; in assay [3], 48.9 µM; in [4] it was 98.6 µM; in [5], 64.4 µM; in assay [6], 59.7 µM. The figures for the TGI in assay [7], in assay [8] and in [9] were greater than 100 µM, greater than 87.9 µM and greater than 95.5 µM, respectively.

With `CN(C)C(=S)/N=c1\ssc(=S)n1-c1ccccc1`, the TGI in assay [1] was 46.6 µM; in assay [2], 33.1 µM; in assay [3] it was greater than 100 µM; in assay [5] it was 29.6 µM; in assay [6], greater than 100 µM; in assay [7] it was 30.2 µM. Besides, the TGI amounted to 27.2 µM in assay [8] and 28.6 µM in assay [9].

Regarding `O=C(O)c1c([N+](=O)[O-])cc(C(F)(F)F)cc1[N+](=O)[O-]`, the TGI in assay [1], in assay [2], in [3], in [4], in assay [5] and in assay [6] was greater than 100 µM throughout. The TGI in [7], in assay [8] and in [9] was greater than 100 µM each time.

On to `COc1ccc2nc3ccccc3c(NCCCCCN(CCCl)CCCl)c2c1`, for which the TGI in [1] is 1.21 µM; in assay [2] it was 0.192 µM; in assay [3], 0.433 µM; in [4], 0.963 µM; in assay [6] it was 0.118 µM; in assay [7], 0.5 µM. This compound also returned a TGI in assay [9] of 0.184 µM.

For the compound `COc1ccc2c(c1)CC[C@@H]1[C@@H]2CC[C@]2(C)c3[nH]ncc3C[C@@H]12`, the GI50 in [1] was 12.6 µM; in assay [3], 8.16 µM; in assay [4] it was 8.9 µM; in assay [5], 11.3 µM; in [7] it was 18.2 µM; in assay [8] it was 12.3 µM. The GI50 in [10] was 18.2 µM; in [9] it was 16.4 µM. Further, the TGI is 27.5 µM in assay [1]; 16.4 µM in [3]; 18.6 µM in [4]; 29.4 µM in [5]; greater than 50 µM in assay [7]; 31.9 µM in assay [8]. In addition, the TGI in [10] and in assay [9] was greater than 50 µM each time.

With `CCOc1ccccc1NC(=O)C(=O)C(C(=O)c1ccc2ccccc2c1)C1OC(=O)c2ccccc21` (stereo not given), the TGI was 52.2 µM in assay [2]; 24.5 µM in assay [3]; 52 µM in assay [4]; 50.9 µM in assay [5]; 69.1 µM in assay [6]; 22.5 µM in [7]. The TGI in assay [8] stood at 22.3 µM; in assay [9], 36.4 µM.

As for `O=c1c2cc(Br)ccc2nc(-c2ccccc2)n1NCC1(O)OCC(O)C(O)C1O` (stereo not given), the TGI in [1], in [2], in [3], in assay [4], in [5] and in assay [6] was greater than 100 µM in each case. Moreover, the TGI in assay [7], in assay [8] and in [9] was greater than 100 µM in each case.

For the compound `O=C(c1ccco1)c1ccccc1C(=O)c1ccco1`, the TGI in assay [1], in assay [2], in assay [3], in assay [4], in assay [5] and in [6] was greater than 100 µM each time. Besides, the TGI in [7], in assay [8] and in assay [9] was greater than 100 µM each time.

In the case of `CSc1c(S(C)=O)[nH]c2cc(Br)cc(Br)c12` (stereo not given), the TGI was 45.2 µM in assay [1]; 35.1 µM in assay [2]; 38.1 µM in assay [3]; 45 µM in assay [4]; greater than 100 µM in assay [5]; 58.5 µM in assay [6]. The figures for the TGI in [8] and in assay [9] were 32.7 µM and 61.5 µM, respectively.
